# Read-outs that look alike come from different tables or passages of the source.
# Experiments:
# rhesus monkeys [1] = conditions: cited from earlier work
# beagle dogs [2] = conditions: oral, 3 months; 200, 600, 2,000 mg/kg/day; cited from earlier work
# SD rats [3] = conditions: oral; 60, 200, 600 mg/kg/day; cited from earlier work
# beagle dogs [4] = conditions: cited from earlier work
# [5] = test system: middle brain artery (MC) occulusion model Wistar rats; test: transient cerebral ischemia, middle brain artery (MC) occlusion model, infarction volume; assay type: in vivo; conditions: for reduction of size of cerebral infarction: MC occlusion 1 hour
# mice = conditions: mouse, in vivo; cited from earlier work
# cultured cells = conditions: cited from earlier work
# [6] = test system: patients with brain ischemia (subarachnoid hemorrhage, cerebral infarction, brain injury, brain hemorrhage); conditions: human, in vivo
# Experimental: In order further to examine the neuroprotective effect in cerebral ischemia indicated from the experiment, a clinical preliminary study was conducted.
# After the neck clipping surgery, 500 mg/day of “DOPS” (registered trademark, Sumitomo Pharmaceuticals Co., Ltd., Japan) was administered for 5 days.
# Neck clipping was conducted on the day of onset, when the patient's condition was Hunt & Kosnic Grade IV. From the third day after subarachnoid hemorrhage, 500 mg/day of “DOPS” (registered trademark) was administered for 5 days.
# Neck clipping was conducted on the day of onset, when the patient's condition was Hunt & Kosnic Grade IV. Since consciousness disturbance (semicoma), hyperventilation, and reduced light reflex were observed on the sixth day after surgery, a diagnosis of impending cerebral herniation was established and 500 mg/day of “DOPS” (registered trademark) was administered for 5 days. […] Soon after discontinuation of administration, mydriasis was rapidly observed.
# Left hemiplegia first appeared and consciousness disturbance (JCS:100) and mydriasis of the right eye were observed 2 days later. Immediately after that, external and internal decompressions was performed and 300 mg/day of “DOPS” (registered trademark) was simultaneously administered for 5 days.
# From the time immediately after injury, the patient developed mydriasis in both eyes and deep coma due to brainstem hernia. […]
# physchem = assay type: physicochemical
# From the text: (§1) L-threo-DOPS, whose molecular formula is C9H11NO5, is white or light brown crystals or crystalline powder with no taste or odor. […] It is difficult to measure a clear melting point or decomposition point for L-threo-DOPS. […] DL-threo-DOPS, which contains 50% L-threo-DOPS, can also be used in this invention. Hereafter, L-threo-DOPS and DL-threo-DOPS are generically denoted as “threo-DOPS”.
# [7] = test system: SD rats (male and female); conditions: oral; 60, 200, 600 mg/kg/day; cited from earlier work
# Mice, ICR strain = conditions: cited from earlier work; for LD50: mouse, in vivo
# [8] = test system: guinea pigs (Hartley strain, male); conditions: guinea pig, in vivo; cited from earlier work
# solubility (descriptive) = assay type: physicochemical
# From the text: as §1
# SD rats [9] = conditions: oral, 3 months, cited from earlier work
# SD rats [10] = conditions: oral, 12 months, cited from earlier work
# Rats, SD strain = conditions: cited from earlier work
# rhesus monkeys [11] = conditions: oral, 3 months; 300, 1,000, 3,000 mg/kg/day; cited from earlier work
# SD rats [12] = conditions: oral, 60, 200, 600 mg/kg/day, cited from earlier work
# microorganisms = conditions: cited from earlier work
# beagle dogs [13] = conditions: oral, 12 months; 125, 500, 2,000 mg/kg/day; cited from earlier work
# rabbits = conditions: oral; 30, 100, 300 mg/kg/day; cited from earlier work
# [14] = prior art feature; cited from earlier work
smiles,measurement,setting,value
"N[C@H](C(=O)O)[C@H](O)c1ccc(O)c(O)c1 [L-threo-DOPS, (−)-(2S, 3R)-2-amino-3-hydroxy-3-(3,4-dihydroxyphenyl) propionic acid]",LD50,"rhesus monkeys [1]; rhesus monkey, in vivo, po",>5000 mg/kg
same,general symptoms in acute toxicity,rhesus monkeys [1]; rhesus monkeys,no abnormal symptom was observed
same,abnormality in various observations and testing evaluations,beagle dogs [2],no abnormality was observed
same,dose with shortening of the pregnancy period,SD rats [3],600 mg/kg
same,dose with suppression of neonatal development after birth,SD rats [3],≥ 60 mg/kg
same,other influence,SD rats [3],No other influence was observed
same,LD50,"beagle dogs [4]; dog, in vivo, po",>5000 mg/kg
same,general symptoms in acute toxicity,beagle dogs [4]; dogs,no abnormal symptom was observed
same,reduction of size of cerebral infarction,"[5]; L-threo-DOPS 400 mg/kg (+ BSZ 2 mg/kg) i.p. 30 minutes before occlusion, FIG. 1",about 40%
same,reduction of size of cerebral infarction,"[5]; L-threo-DOPS 400 mg/kg (+ BSZ 2 mg/kg) i.p. one hour after occlusion, FIG. 2",about 40%
same,regression effect on cerebral infarction,"[5]; MC occlusion 24 hours, L-threo-DOPS 400 mg/kg (+ BSZ 2 mg/kg) i.p. one hour after occlusion, FIG. 3",no regression effect was observed
same,"mutagenicity, micronucleus",mice,no mutagenicity was observed
same,"mutagenicity, chromosome abnormality",cultured cells,no mutagenicity was observed
same,adverse effects,[6],No adverse effects were observed
same,pKa,physchem,7.88
same,"influence on mating rate, conception rate, nidation number, embryo/neonate death, teratogenic actions or fetal development",[7],no influence was observed
same,general symptoms in acute toxicity,"Mice, ICR strain; mice","reduced voluntary motions, deep breathing and bradypnea"
same,LD50,"Mice, ICR strain; iv",>100 mg/kg
same,LD50,"Mice, ICR strain; po",>10000 mg/kg
same,LD50,"Mice, ICR strain",>10000 mg/kg
same,Endodermoreaction,[8],negative
same,PCA reaction,[8],negative
same,intra-gel sedimentation reaction,[8],negative
same,systemic anaphylaxis reaction,[8],negative
same,"solubility in ether, ethanol and glacial acetic acid","solubility (descriptive); ether, ethanol, glacial acetic acid",dissolves very little
same,solubility in water,solubility (descriptive); water,dissolves only slightly
same,"dose with suppressed voluntary motions, necrosis of kidney uriniferous tubuli, necrosis of cardiac muscles, etc.","SD rats [9]; 60, 300, 1,500 mg/kg/day",≥ 60 mg/kg/day
same,dose with drooling,SD rats [9],"1,500 mg/kg/day"
same,dose with suppression of weight increases and such,SD rats [9],≥ 300 mg/kg/day
same,"dose with suppression of weight increases, increase in thymus weight, necrosis of kidney uriniferous tubuli, degeneration of kidney glomeruli, etc.","SD rats [10]; 10, 30, 100, 300 mg/kg/day",≥ 30 mg/kg/day
same,"dose with drooling, myocarditis and calcification of cardiac muscles, etc.",SD rats [10],≥ 100 mg/kg/day
same,LD50,"Rats, SD strain; rat, in vivo, po",>10000 mg/kg
same,general symptoms in acute toxicity,"Rats, SD strain; rats","reduced voluntary motions, deep breathing and bradypnea"
same,abnormality in various observations and testing evaluations,rhesus monkeys [11],no abnormality was observed
same,other influence,SD rats [12],No other influence was observed
same,dose with lower body weights of fetuses and increased occurrence of undulating ribs,SD rats [12]; restorable after birth,≥ 200 mg/kg
same,"mutagenicity, back mutation",microorganisms,no mutagenicity was observed
same,abnormality in various observations and testing evaluations,beagle dogs [13],no abnormality was observed
same,influence on the rabbits,rabbits,no influence on the rabbits was observed
N[C@H](C(=O)O)[C@H](O)c1ccc(O)c(O)c1 [threo-DOPS],passage through the blood-brain barrier,[14],passes through the blood-brain barrier into the brain

# Source: US20010007856A1, “METHOD FOR PREVENTING AND TREATING AT A SUPERACUTE PHASE, AGAINST NEUROLOGICAL DEFICITS OR NEURONAL DEATH IN BRAIN ISCHEMIA AND PATHOLOGICAL CONDITIONS” (priority 1997, published 2001)
